{"source": "patent US7265096B2", "about": "(XenoPort, Inc., priority 2002, dated 2007)", "key": {"ENT1": {"molecular_target": "T1, ENT1 (Homo sapiens, UniProt Q99808)", "T1 construct": "expressed in transfected cells; host or cells: Xenopus laevis oocytes injected with RNA", "T1 sequence (Q99808 1-456)": "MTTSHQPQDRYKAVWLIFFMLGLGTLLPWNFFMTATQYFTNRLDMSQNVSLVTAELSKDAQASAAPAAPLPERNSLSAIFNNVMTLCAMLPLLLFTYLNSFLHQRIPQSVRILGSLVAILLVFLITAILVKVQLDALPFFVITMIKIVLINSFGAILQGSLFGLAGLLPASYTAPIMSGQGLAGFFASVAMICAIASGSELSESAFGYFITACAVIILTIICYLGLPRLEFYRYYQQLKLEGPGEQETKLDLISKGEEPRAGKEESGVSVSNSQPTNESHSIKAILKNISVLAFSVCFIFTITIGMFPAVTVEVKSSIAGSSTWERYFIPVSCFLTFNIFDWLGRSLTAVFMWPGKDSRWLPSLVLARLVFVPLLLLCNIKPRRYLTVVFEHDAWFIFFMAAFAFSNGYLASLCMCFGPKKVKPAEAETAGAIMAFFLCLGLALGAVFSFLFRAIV", "assay": "Mass spectroscopy analysis of active transport into oocytes expressing ENT1", "assay_type": "cell-based", "conditions": "0.1-3 mM, 10-30 minutes, LC/MS/MS, vs non-expressing oocytes", "experimental": "(§1) (b) Mass Spectroscopy Analysis of Active Transport of Compounds into Oocytes Expressing CNT1, CNT2, CNT3, ENT1 or ENT2\n(§2) Transporters were expressed in oocytes as described above (a). Experiments were performed 3-5 days following injection. Oocytes were incubated with 0.1-3 mM of compounds for 10-30 minutes in frog ringers solution (90 mM NaCl, 2 mM KCl, 1 mM MgCl2, 2 mM CaCl2, 10 mM NaHEPES, pH 7.45, and 1% BSA). Experiments were performed at room temperature. For each compound, 4-7 oocytes were incubated for each transporter or non-expressing control. Following incubation, oocytes were rapidly washed 4 times in frog ringers solution, and placed one oocyte per well in a 96 well plate. Oocytes were homogenized in 0.15 mL solution containing 50% ethanol:water or 50% methanol:water. Precipitated protein or cellular matter was pelleted by spinning plates at 3000 RPM for 5 minutes. The solvent layer containing the extracted compounds was removed from wells.\n(§3) The concentration of each compound in the oocyte extract was determined by analytical LC/MS/MS. Briefly, concentrations of test compound were determined using an API 2000 LC/MS/MS instrument equipped with an Agilent 1100 binary pump and a CTC HTS-PAL autosampler. The column was a Phenomenex hydro-RP 4.6×50 mm column. The mobile phase was water with 0.1% formic acid, 0.005% heptafluorobutyric acid (A) and acetonitrile with 0.1% formic acid, 0.005% heptafluorobutyric acid (B). The gradient condition was: 5% B for 0.5 min, then to 95% B in 2.5 min, then maintained at 95% B for 1 min. The mobile phase was returned to 5% B for 2 min. A TurboIonSpray source was used on the API 2000. The analysis was done in positive ion mode and an MRM transition of each analyte was first optimized using the standard solution. 10 μL of the samples were injected onto LC/MS/MS system for analysis. The peaks were integrated using Analyst 1.2 quantitation software. Specific uptake was determined by comparison of average uptake in oocytes expressing transporters with uptake in non-expressing oocytes."}, "ENT2": {"molecular_target": "T2, ENT2 (Homo sapiens, UniProt Q14542)", "T2 construct": "expressed in transfected cells; host or cells: Xenopus laevis oocytes injected with RNA", "T2 sequence (Q14542 1-456)": "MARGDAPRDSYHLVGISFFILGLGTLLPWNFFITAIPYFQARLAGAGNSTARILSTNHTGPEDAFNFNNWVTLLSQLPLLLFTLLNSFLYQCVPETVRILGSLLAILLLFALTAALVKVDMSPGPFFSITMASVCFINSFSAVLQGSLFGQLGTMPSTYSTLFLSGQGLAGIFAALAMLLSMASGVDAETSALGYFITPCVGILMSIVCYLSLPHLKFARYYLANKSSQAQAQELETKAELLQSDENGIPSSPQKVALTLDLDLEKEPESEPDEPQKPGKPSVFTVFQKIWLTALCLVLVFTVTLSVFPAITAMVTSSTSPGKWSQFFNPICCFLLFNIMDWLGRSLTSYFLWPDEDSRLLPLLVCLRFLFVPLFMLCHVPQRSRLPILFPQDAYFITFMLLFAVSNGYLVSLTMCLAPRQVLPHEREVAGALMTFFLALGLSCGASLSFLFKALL", "assay": "Mass spectroscopy analysis of active transport into oocytes expressing ENT2", "assay_type": "cell-based", "conditions": "0.1-3 mM, 10-30 minutes, LC/MS/MS, vs non-expressing oocytes", "experimental": "as §1, §2, §3"}, "CNT1": {"molecular_target": "T3, CNT1 (Homo sapiens, UniProt O00337)", "T3 construct": "expressed in transfected cells; host or cells: Xenopus laevis oocytes injected with in vitro transcribed RNA", "T3 sequence (O00337 1-649)": "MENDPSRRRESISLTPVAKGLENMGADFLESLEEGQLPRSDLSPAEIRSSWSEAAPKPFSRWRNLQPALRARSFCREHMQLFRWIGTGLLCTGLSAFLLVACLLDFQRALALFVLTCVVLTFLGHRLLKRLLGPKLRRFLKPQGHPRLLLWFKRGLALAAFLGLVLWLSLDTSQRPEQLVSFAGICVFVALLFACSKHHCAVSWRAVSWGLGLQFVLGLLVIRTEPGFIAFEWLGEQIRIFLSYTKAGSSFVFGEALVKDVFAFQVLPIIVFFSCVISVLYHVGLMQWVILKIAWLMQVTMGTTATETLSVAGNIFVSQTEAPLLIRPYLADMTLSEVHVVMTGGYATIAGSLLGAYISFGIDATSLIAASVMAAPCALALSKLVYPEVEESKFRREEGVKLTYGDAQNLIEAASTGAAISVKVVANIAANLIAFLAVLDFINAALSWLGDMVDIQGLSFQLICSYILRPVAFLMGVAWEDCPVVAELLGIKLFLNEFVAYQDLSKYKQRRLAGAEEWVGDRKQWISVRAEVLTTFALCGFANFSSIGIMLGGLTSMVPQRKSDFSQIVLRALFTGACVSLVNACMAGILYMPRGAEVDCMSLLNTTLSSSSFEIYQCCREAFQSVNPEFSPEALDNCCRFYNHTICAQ", "assay": "Mass spectroscopy analysis of active transport into oocytes expressing CNT1", "assay_type": "cell-based", "conditions": "0.1-3 mM, 10-30 minutes, LC/MS/MS, vs non-expressing oocytes", "from_the_text": "(§4) Human CNT1, CNT2 and CNT3 transporter cDNAs were subcloned into a modified pGEM plasmid that contains 5′ and 3′ untranslated sequences from the Xenopus β-actin gene. These sequences increase RNA stability and protein expression. Plasmid cDNA was linear zed and used as template for in vitro transcription (Epicentre Technologies transcription kit, 4:1 methylated:non-methylated GTP).\nas §1, §2\nThe concentration of each compound in the oocyte extract was determined by analytical LC/MS/MS. Briefly, concentrations of test compound were determined using an API 2000 LC/MS/MS instrument equipped with an Agilent 1100 binary pump and a CTC HTS-PAL autosampler. The column was a Phenomenex hydro-RP 4.6×50 mm column. The mobile phase was water with 0.1% formic acid, 0.005% heptafluorobutyric acid (A) and acetonitrile with 0.1% formic acid, 0.005% heptafluorobutyric acid (B). […] The peaks were integrated using Analyst 1.2 quantitation software. Specific uptake was determined by comparison of average uptake in oocytes expressing transporters with uptake in non-expressing oocytes."}, "CNT3": {"molecular_target": "T4, CNT3 (Homo sapiens, UniProt Q9HAS3)", "T4 construct": "expressed in transfected cells; host or cells: Xenopus laevis oocytes injected with in vitro transcribed RNA", "T4 sequence (Q9HAS3 1-691)": "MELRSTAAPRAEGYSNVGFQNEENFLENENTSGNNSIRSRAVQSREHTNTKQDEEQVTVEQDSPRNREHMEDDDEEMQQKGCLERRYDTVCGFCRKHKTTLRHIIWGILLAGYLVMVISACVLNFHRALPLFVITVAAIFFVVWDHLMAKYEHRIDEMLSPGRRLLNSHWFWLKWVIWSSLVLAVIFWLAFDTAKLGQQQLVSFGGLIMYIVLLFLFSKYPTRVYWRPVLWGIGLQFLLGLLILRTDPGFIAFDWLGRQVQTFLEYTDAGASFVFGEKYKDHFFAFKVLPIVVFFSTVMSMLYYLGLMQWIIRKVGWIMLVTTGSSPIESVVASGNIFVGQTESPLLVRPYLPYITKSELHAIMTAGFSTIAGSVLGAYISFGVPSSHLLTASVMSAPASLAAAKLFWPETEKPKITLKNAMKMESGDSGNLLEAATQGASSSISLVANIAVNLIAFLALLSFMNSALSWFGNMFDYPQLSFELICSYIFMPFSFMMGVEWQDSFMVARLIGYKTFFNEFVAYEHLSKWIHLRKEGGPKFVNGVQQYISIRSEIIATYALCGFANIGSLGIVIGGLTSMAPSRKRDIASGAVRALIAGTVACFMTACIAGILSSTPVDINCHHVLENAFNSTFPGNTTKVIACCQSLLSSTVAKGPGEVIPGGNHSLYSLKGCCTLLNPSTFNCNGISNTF", "assay": "Mass spectroscopy analysis of active transport into oocytes expressing CNT3", "assay_type": "cell-based", "conditions": "0.1-3 mM, 10-30 minutes, LC/MS/MS, vs non-expressing oocytes", "from_the_text": "as §4, §1, §2, §3"}, "[1]": {"assay": "Pharmacokinetics and intestinal exposure to gemcitabine after oral dosing in mice", "assay_type": "in vivo", "conditions": "mice, oral, 20 mg-eq. gemcitabine/kg", "experimental": "Blood samples (0.5 mL) were obtained by cardiac puncture from 4 animals at each time point (1, 5, 10, 15, 30, 45 minutes and 1, 2, 4, 6 and 24 hr post-dosing). Samples were immediately transferred to tubes containing 10 μL of tetrahydrouridine (50 μg/mL in 50% methanol/water) to prevent further deamination and aliquots (100 μL) were quenched with a solution of 1% w/w formic acid in acetonitrile (300 μL). Quenched blood samples were stored at −80° C. until analyzed. Following collection of blood samples, the small intestine of each animal was removed, rinsed with saline, scraped to remove the mucosal layer, and the mucosal tissue was transferred to a pre-weighed vial containing 10 μL of tetrahydrouridine (50 μg/mL in 50% methanol/water). Sample vials were snap frozen in dry ice/acetone and stored at −80° C. until analyzed. Mucosal tissue samples were diluted 1:10 in water and 100 μL of the resulting sample was added to 400 μL of methanol."}}, "data": [{"smiles": "CCOC(=O)Nc1ccn([C@@H]2O[C@H](CO)[C@@H](O)C2(F)F)c(=O)n1", "note": "[Compound 11, β-1-(4-Ethoxycarbonylamino-2-oxo-1H-pyrimidin-1-yl)-2-deoxy-2,2-difluororibose]", "values": [{"measurement": "Specific uptake into oocytes expressing ENT1", "setting": "ENT1", "result": "Significant uptake over background"}, {"measurement": "Specific uptake into oocytes expressing ENT2", "setting": "ENT2", "result": "Significant uptake over background"}, {"measurement": "Specific uptake into oocytes expressing CNT1", "setting": "CNT1", "result": "Significant uptake over background"}, {"measurement": "Specific uptake into oocytes expressing CNT3", "setting": "CNT3", "result": "Significant uptake over background"}, {"measurement": "Oral bioavailability as gemcitabine (in words)", "setting": "[1]", "result": "substantial oral bioavailability"}]}, {"smiles": "CCCCCOC(=O)Nc1ccn([C@@H]2O[C@H](CO)[C@@H](O)C2(F)F)c(=O)n1", "note": "[Compound 26, β-1-(4-Pentyloxycarbonylamino-2-oxo-1H-pyrimidin-1-yl)-2-deoxy-2,2-difluororibose]", "values": [{"measurement": "Specific uptake into oocytes expressing ENT1", "setting": "ENT1", "result": "specific uptake was observed"}, {"measurement": "Specific uptake into oocytes expressing ENT2", "setting": "ENT2", "result": "specific uptake was observed"}, {"measurement": "Specific uptake into oocytes expressing CNT3", "setting": "CNT3", "result": "specific uptake was observed"}, {"measurement": "Oral bioavailability as gemcitabine (in words)", "setting": "[1]", "result": "substantial oral bioavailability"}]}, {"smiles": "O=C(Nc1ccn([C@@H]2O[C@H](CO)[C@@H](O)C2(F)F)c(=O)n1)OCC(F)(F)F", "note": "[Compound 36, β-1-(4-(1,1,1-Trifluoroethyl)oxycarbonylamino-2-oxo-1H-pyrimidin-1-yl)-2-deoxy-2,2-difluororibose]", "values": [{"measurement": "Specific uptake into oocytes expressing ENT1", "setting": "ENT1", "result": "specific uptake was observed"}, {"measurement": "Specific uptake into oocytes expressing ENT2", "setting": "ENT2", "result": "specific uptake was observed"}, {"measurement": "Specific uptake into oocytes expressing CNT3", "setting": "CNT3", "result": "specific uptake was observed"}, {"measurement": "Oral bioavailability as gemcitabine (in words)", "setting": "[1]", "result": "substantial oral bioavailability"}]}, {"smiles": "C=C(C)OC(=O)Nc1ccn([C@@H]2O[C@H](CO)[C@@H](O)C2(F)F)c(=O)n1", "note": "[Compound 38, β-1-(4-(Propen-2-yl)oxycarbonylamino-2-oxo-1H-pyrimidin-1-yl)-2-deoxy-2,2-difluororibose]", "values": [{"measurement": "Specific uptake into oocytes expressing ENT1", "setting": "ENT1", "result": "Significant uptake over background"}, {"measurement": "Specific uptake into oocytes expressing ENT2", "setting": "ENT2", "result": "Significant uptake over background"}, {"measurement": "Specific uptake into oocytes expressing CNT1", "setting": "CNT1", "result": "Significant uptake over background"}, {"measurement": "Specific uptake into oocytes expressing CNT3", "setting": "CNT3", "result": "Significant uptake over background"}, {"measurement": "Oral bioavailability as gemcitabine (in words)", "setting": "[1]", "result": "substantial oral bioavailability"}]}, {"smiles": "CC(C)(C)C(=O)OCCCC(=O)Nc1ccn([C@@H]2O[C@H](CO)[C@@H](O)C2(F)F)c(=O)n1", "note": "[Compound 62, β-1-[4-(4-Pivaloyloxybutyroylamino)-2-oxo-1H-pyrimidin-1-yl]-2-deoxy-2,2-difluororibose]", "values": [{"measurement": "Specific uptake into oocytes expressing ENT1", "setting": "ENT1", "result": "Significant uptake over background"}, {"measurement": "Specific uptake into oocytes expressing ENT2", "setting": "ENT2", "result": "Significant uptake over background"}, {"measurement": "Specific uptake into oocytes expressing CNT1", "setting": "CNT1", "result": "Significant uptake over background"}, {"measurement": "Specific uptake into oocytes expressing CNT3", "setting": "CNT3", "result": "Significant uptake over background"}, {"measurement": "Oral bioavailability as gemcitabine (in words)", "setting": "[1]", "result": "substantial oral bioavailability"}]}]}
